Results published in patent US12310967B2, “Compositions and methods of treatment for neurological disorders comprising motor neuron diseases” (Gliapharm SA, priority 2017, dated 2025).

What was measured:
[1] = ALS patients; cited from earlier work
primary astrocytes [2] = experiment: Extracellular lactate quantification; assay type: cell-based, mouse; conditions: Appendix I, secondary screening: extracellular lactate
Method in brief: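 Astrocytes were stimulated 90 min at 37 °C in D5030 medium with 5 mM glucose and 44 mM bicarbonate, with compound at 0-100 μM. Extracellular lactate was measured enzymatically with LDH/NAD in glycine-semicarbazide buffer, pH 10, for 1 h at 37 °C. NADH fluorescence (340/450 nm) was converted to lactate using an L-lactate standard curve.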

primary astrocytes [3] = experiment: High throughput screening (HTS) for lactate secretion: acidification of extracellular medium (SNARF5); assay type: cell-based, mouse; set-up: key to Score / HTS Score (SNARF5) / Score_SNARF: fraction of plate positive-control activity (1 = 100%); conditions: Appendix I, primary screening confirmation (SNARF5)
Method in brief: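 Mouse primary cortical astrocytes (DIV17) exposed to compounds at 10 uM final (1% DMSO) for 90 min in low-bicarbonate medium with SNARF-5F. Extracellular pH from 630/580 nm emission ratio (ex 480 nm); hits scored as % of CCCP 2 uM positive control, duplicate plates.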

primary astrocytes [4] = experiment: Intracellular glycogen quantification, Example 2; assay type: cell-based, mouse; conditions: 10 μM, 3 h
Description: Astrocytes grown on 12-well plates were used for intracellular glycogen quantifications. Cells were stimulated with Vehicle (DMSO), with compounds of the invention (10 μM), or with a positive control for 180 min, at 37° C. 5% CO2/95% air in D5030 medium complemented with
5 mM D-glucose and 44 mM sodium bicarbonate (pH 7.2). […] At the end of the stimulation, medium was removed and replaced with 600 μl of 30 mM Tris HCl, and stored at −20° C.
First, the amount of proteins in each sample was quantified to assess whether harvested astrocytes from primary cell cultures yielded enough and equivalent amounts of proteins on each replicates. Proteins were quantified using the micro BCA Protein Assay kit (Thermo Scientific), according to manufacturer's instructions. Next, intracellular glycogen concentrations were quantified using a 250 μl-aliquot of the same stimulated, thawed, and sonicated cell lysate. After an incubation period of 30 min at 90° C. and 400 rpm, 28 μl of a 0.1M acetic acid/sodium acetate buffer (pH 4.6) was added to each lysate aliquots, which were then separated in two. Each split aliquots received either 5 μl of amyloglucosidase or H2O, and incubated for 120 min at 37° C. After centrifugation at 16'000G for 5 min, 20 μl of supernatant were placed in a 96-well plate, to which 150 μl of a mix containing 0.67 mM ATP, 0.67 mM NADP, 1.8% hexokinase/glucose-6-phosphate dehydrogenase in a 0.1M Tris Buffer-HCl/3.3 mM magnesium (pH 8.1) buffer was added. Fluorescence intensity (340 nm excitation/440 nm emission) was measured using a Safire 2 spectrophotometer. Glucose concentrations were assessed relative to a glucose standard curve, and glycogen concentrations were calculated by subtracting glucose values of samples that had received amyloglucosidase (i.e. that had degraded their glycogen stores) to samples that had not. Intracellular levels of glycogen, which is the main source of glucose storage in the brain, were analyzed in primary astrocytes after treatment with compounds of interest (10 μM, 3 h) (FIG. 5B), and compound GP-0157 (0.1, 1, 10 μM, 3 h) (FIG. 20).

Structure (SMILES) | prolongation of patients' lifetime [1] | Score_LACTATE (primary astrocytes [2]) | Score_SNARF (primary astrocytes [3]) | mobilization of intracellular glycogen (primary astrocytes [4])
CC1=NN(c2ccccc2)C(=O)C1 [Ederavone, edaravone] | a few months only | – | – | –
COc1ccc(Nc2nc(N3CCOCC3)c3ccccc3n2)cc1 [T0508-5190] | – | 0.2892 | 0.4029 | significantly enhance
Nc1nc2ccc(OC(F)(F)F)cc2s1 [Riluzole] | a few months only | – | – | –
